Results from patent publication US20170184604A1, “DD1ALPHA RECEPTOR AND USES THEREOF IN IMMUNE DISORDERS” (THE GENERAL HOSPITAL CORPORATION, priority 2014, published 2017).

Assays:
human CD4+ T cells = experiment: Human T cell activation assay (CFSE proliferation, cytokine ELISA); assay type: cell-based
Method: Enriched human CD4+ T cells and CD8+ T cells were stained with CFSE (1 μM) and stimulated with plate-bound anti-CD3 antibody (3 μg/ml) together with 2, 5, or 10 μg/ml of DD1α-Ig proteins or control Ig proteins. The proliferations of CD4+ T or CD8+ T cells were determined by the percentages of CFSE-labeled CD4+ T or CD8+ T cells at the 72-hour culture. The levels of cytokines IFN-γ and TNF-α in culture supernatant were analyzed by ELISA at the 48-hour culture. […] The proliferation and cytokine production of CD4+ T cells were determined as FIG. 5A. […] The proliferations of CD4+ T cells were determined by percentage of CFSE-diluted CD4+ cells on day 3. The levels of cytokines IFN-γ and IL-2 in culture supernatant were analyzed by ELISA on day 2. […] Data are shown as mean±SD and representative of three experiments.
The proliferations of CD4^+ T cells were determined by percentage of CFSE-diluted CD4^+ cells on day 3.
The cytokine production of CD4^+ T cells were then determined IFN-γ and TNF-alpha levels in culture supernatants on day 2 were analyzed by ELISA.
The amount of Ig protein was kept constant at 10 μg/ml by the addition of control Ig protein. Human CD4+ or CD8+ T cells were purified from freshly isolated PBMCs using CD4+ T Cell Isolation Kit II, human or CD8+ T Cell Isolation Kit, human (Miltenyi Biotec). Mouse CD4+ and CD8+ T cells were purified from splenocytes freshly isolated from mice using CD4+ T Cell Isolation Kit II, mouse or CD8a+ T Cell Isolation Kit II, mouse (Miltenyi Biotec). […] The T cells were labeled with 1 μM CFSE, quenched by cold FBS and incubated in the anti-CD3 & Ig proteins-coated plates. On day 2 after stimulation, supernatant was collected and cytokines were assayed by ELISA. On day 3, cells were stained with anti-CD4-APC (OKT4, eBioscience for human CD4+ T cells; RM4-5, eBioscience for mouse CD4+ T cells) or anti-CD8-APC (SK1, eBioscience for human CD8+ T cells; 53-6.7, eBioscience for mouse CD8+ T cells) and then analyzed for CFSE dilution by flow cytometry.

PD-1 = target: T1, PD-1 (Homo sapiens, UniProt Q15116); experiment: Ig fusion protein staining of 293T transfectants (flow cytometry); assay type: binding; settings: cell surface staining
T1 construct: full length human PD-1 and Tim3 cDNA (Sino biological) were cloned into pcDNA3.1(−) tagged with HA at C-terminus; host or cells: HEK293T
T1 sequence (Q15116 25-288): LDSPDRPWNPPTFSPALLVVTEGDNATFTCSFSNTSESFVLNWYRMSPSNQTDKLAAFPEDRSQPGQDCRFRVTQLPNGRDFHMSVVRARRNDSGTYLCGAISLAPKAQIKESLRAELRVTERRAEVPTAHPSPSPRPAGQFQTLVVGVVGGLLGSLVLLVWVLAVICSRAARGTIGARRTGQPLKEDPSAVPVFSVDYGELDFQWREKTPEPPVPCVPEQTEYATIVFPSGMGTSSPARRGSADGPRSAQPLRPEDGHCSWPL
Method: (§1) The bound Ig fusion proteins were detected with anti-Ig-APC. Empty vector (pcDNA3.1)-transfected cells stained with Ig proteins are shown as a negative control (gray filled) and other staining is shown as black open. […] Purified CD4+ T cells from Wt and DD1α−/− mice were assayed for binding to Ig fused DD1α or PD1 proteins. […] The bound Ig fusion proteins were detected by anti-Ig-APC. Binding amounts were determined by percentage of APC positive cells compared to control Ig protein-bound cells. […] The bead bound proteins were eluted and determined by western blot analysis using anti-HA antibody (asterisks). […] The bead bound proteins were eluted and detected by western blot analysis with anti-DD1α or anti-PD1 antibody (asterisk). […] MCF7 cells were treated by Nutlin-3 (10 μM) for 1 to 3 days. MCF7 cells were transfected with control siRNA or p53 siRNA for 24 hours and treated with CPT (500 nM) or DMSO (control) for 1 and 2 days. The levels of indicated proteins were analyzed by western blot analysis. Total RNAs from control siRNA or p53 siRNA transfected MCF7 cells were assessed for mRNA levels of PD1 or PD-L1 by real-time quantitative PCR.

TIM-3 = target: T2, TIM-3 (Homo sapiens, UniProt Q8TDQ0); experiment: as above; assay type: binding; settings: cell surface staining
T2 construct: full length human PD-1 and Tim3 cDNA (Sino biological) were cloned into pcDNA3.1(−) tagged with HA at C-terminus; host or cells: HEK293T
Method: as §1

## DD1α-Ig: the extracellular region of DD1α fused with the immunoglobulin G Fc segment
Human CD4+ T cells; human CD4+ and CD8+ T cells, ELISA of culture supernatant
  T cell activation-induced production of IFN-γ and TNF-α: clearly blocked
Human CD4+ T cells; plate-bound anti-CD3 3 μg/ml, CFSE, Ig control 92.2%
  proliferation of human CD4+ T cells: 47.1%
Human CD4+ T cells; plate-bound anti-CD3 3 μg/ml, CFSE, relative to Ig control (92.2% proliferation)
  inhibition of anti-CD3-stimulated human CD4+ T cell proliferation: ~45%
Human CD4+ T cells; various concentrations with 3 μg/ml anti-CD3
  CD4+ T cell proliferation stimulated by anti-CD3: strongly inhibited
PD-1
  binding to PD-1-transfected 293T cells: specifically bound
TIM-3
  binding to TIM-3 transfectants: not to PD-L1 or TIM-3 transfectants
